Entries after “also recorded” stand apart in the source; their conditions may differ.
Assays:
[1] = target: T1, purified human MD-2 receptor (Homo sapiens, UniProt Q9Y6Y9); experiment: MD-2-bound fluorescent molecule (bis-ANS) displacement assay; assay type: binding; conditions: MD-2 200 nM, bis-ANS 200 nM
T1 sequence (Q9Y6Y9 19-160): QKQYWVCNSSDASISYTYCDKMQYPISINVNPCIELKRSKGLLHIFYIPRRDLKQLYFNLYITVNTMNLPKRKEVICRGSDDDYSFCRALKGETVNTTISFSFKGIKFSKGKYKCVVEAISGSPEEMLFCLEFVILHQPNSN
Experimental: therefore, TLR4 modulators that interact with MD-2 compete with compound bis-ANS, and are able to displace it from MD-2.
Fluorescence was measured on PerkinElmer fluorimeter LS 55 (PerkinElmer, UK) as previously described^[5].
All measurements were done at 20° C. in a 5×5 mm quartz glass cuvette (Hellma Suprasil, Müllheim, Germany). MD-2 protein (200 nM) and 1,1′-Bis(anilino)-4,4′-bis (naphtalene)-8,8′ disulfonate (bis-ANS, 200 nM) were mixed and incubated until reaching stable relative fluorescence units (RFUs) emitted at 420-550 nm under excitation at 385 nm.
Compounds, at different concentrations, were then added, followed by relative fluorescence unit (RFU) measurement at 420-550 nm.

HEK-Blue™ Null2 cells = experiment: HEK-Blue Null2 counter-assay (SEAP reporter, no TLR4/MD-2/CD14); assay type: cell-based; conditions: 16-18 hours
Experimental: (§1) HEK-Blue™ hTLR4 (FIG. 1A) and HEK-Blue™ Null2 (FIG. 1B) cells were treated with the indicated concentrations of compounds FP11, FP111, and with LPS (100 ng/mL) and incubated for 16-18 hours. Results were normalized to stimulation with LPS alone, and are expressed as mean of percentage ±ES. of at least three independent experiments.
In order to be certain that the agonist effect of compound FP11 be due to the interaction with the TLR4 receptor, the compounds were tested on the HEK-Blue™ Null2 cell line. Said line expresses the same reporter gene of HEK-Blue™ hTLR4 cells (SEAP), but has none of the receptors involved in endotoxin recognition (TLR4, MD-2, CD14).

[2] = target: T1, purified human MD-2 receptor; experiment: Anti-MD-2 antibody (9B4) competition, antibody-sandwich ELISA; assay type: binding; conditions: up to 20 μM
Experimental: The direct binding of molecules FP11 and FP111 to MD-2 was analyzed by using a monoclonal antibody binding MD-2, but not LPS-bound MD-2 (Viriyakosol, S., et al., Characterization of monoclonal antibodies to human soluble MD-2 protein. Hybridoma (Larchmt), 2006. 25(6): p. 349-57).
Anti-MD-2 monoclonal antibody (9B4) specifically binds an epitope near the MD-2 hydrophobic pocket, which is available for 9B4 antibody binding only when the MD-2 hydrophobic pocket is empty. Compound FP11 is accountable for a decrease of 9B4 antibody binding to MD-2 equal to 95% at a concentration of 20 μM (FIG. 3E).
The method of antibody-sandwich ELISA for the detection of the binding of compounds to MD-2 was modified from a previous study.
A microtiter plate was coated overnight at 4° C. with 100 μL/well of 5 μg/mL of chicken polyclonal anti-MD-2 antibodies, diluted in 50 mM Na2CO3 buffer, pH 9.6, and blocked with 1% BSA in PBS. After washing, 1 μM MD-2 with tested compounds was added and incubated for 2 h.
Mouse anti-MD-2 mAb (0.1 μg/mL 9B4) and goat antimouse IgG conjugated with HRP (0.1 μg/mL) in PBS were added, followed by detection at 420 nm after the addition of 100 μL of ABTS (Sigma).
Chicken anti-MD-2 polyclonal antibodies were prepared against recombinant MD-2 by GenTel (Madison, Wis., USA), monoclonal mouse anti-MD-9B4 antibodies were from eBioscience (San Diego, Calif., USA), and secondary goat antimouse IgG conjugated with horseradish peroxidase was from Santa Cruz Biotechnology (Santa Cruz, Calif., USA).

[3] = target: T1, purified human MD-2 receptor; experiment: Surface plasmon resonance binding to MD-2
Experimental: Surface plasmon resonance (SPR) experiments enable the study of direct interactions between the molecules to be characterized and MD-2.
The binding affinity of the compounds to recombinant MD-2 was determined using a Biacore X100 with an NTA sensor chip (Biacore, GE Healthcare, Uppsala, Sweden). Briefly, 0.5 μM MD-2 (in 50 mM TRIS, 150 mM NaCl, 0.5% Tween 20, pH 7.5) was immobilized onto the sensor chip previously activated with 1 min pulse of 10 mM NiSO4. The first flow cell was used as a reference surface to control nonspecific binding.
Both flow cells were incubated with the analyte (in PBS, 5% DMSO, 5% EtOH, pH 7.5) at a flow rate of 10 μL/min at 25° C. at increasing concentrations. The data were analyzed with Biacore Evaluation software. KD values were calculated by global fitting of the equilibrium binding responses from various concentrations of analytes using a 1:1 Langmuir binding model.

[4] = target: T1, purified human MD-2 receptor; experiment: Biotinylated LPS displacement from MD-2 hydrophobic pocket (ELISA); assay type: binding; conditions: increasing concentrations, highest 160 μM
Experimental: The ability to displace LPS from MD-2 hydrophobic pocket was assessed by using an ELISA assay. Molecules FP11 and FP111 were added at increasing concentrations to MD-2 which had previously been incubated with biotinylated LPS.
The ability of the compounds to displace LPS from MD-2 hydrophobic pocket was determined by ELISA.
A microtiter plate was coated overnight at 4° C. with 100 μL/well of 5 μg/mL chicken polyclonal anti-MD-2 antibodies, diluted in 50 mM Na2CO3 buffer, pH 9.6, and blocked with 1% BSA in PBS. After washing, 1 μM MD-2 with biotin-labeled LPS was added and incubated for 2 h. After washing, the compounds were added at different concentrations and incubated for 1.5 h.
After washing, 0.5 μg/mL HRP-conjugated streptavidin (Sigma) in PBS was added, followed by detection at 420 nm after the addition of 100 μL of ABTS (Sigma). Chicken anti-MD-2 polyclonal antibodies were prepared against recombinant MD-2 by GenTel (Madison, Wis., USA),

hTLR4 = target: T2, hTLR4 (Homo sapiens, UniProt O00206+Q9Y6Y9); experiment: HEK-Blue hTLR4 SEAP reporter assay (NF-κB/AP-1 activation); assay type: cell-based; conditions: HEK-Blue hTLR4 cells, 16-18 hours, SEAP reporter
T2 construct: host or cells: HEK-Blue hTLR4 (HEK cells)
Experimental: as §1
HEK-Blue™ hTLR4 cells were treated with increasing concentrations of compound FP11 and of LPS and incubated for 16-18 hours. Results were normalized to maximum activation of the reporter produced by LPS (FIG. 2A) and to maximum activation of the reporter produced by the compound itself (FIG. 2B). Data were fitted to a sigmoidal four-parameter logistic equation in order to determine IC50 values, and expressed as mean of percentage ±ES of at least three independent experiments.
HEK-Blue™ hTLR4 cells are HEK cells transfected so as to stably express human receptors hTLR4, hMD-2, and hCD14 for endotoxin recognition. In addition, said cells have a reporter gene encoding for a secreted alkaline phosphatase (SEAP) μlaced under the control of specific transcription factors (NF-κB and AP-1) activated by the TLR4 signaling pathway. Therefore, the presence of LPS or of an agonist of TLR4 causes receptor dimerization, activation of the signaling pathway and of transcription factors NF-κB and AP-1, and finally SEAP production and secretion into the culture medium. SEAP levels can be subsequently quantitated by incubating the medium with compound p-nitrophenylphosphate (pNPP) and monitoring with a spectrophotometer the formation of p-nitrophenol chromogenic product at 405 nm.
HEK-Blue™ hTLR4 cells (InvivoGen) were cultured according to manufacturer's instruction. […]
Cells were detached using a cell scraper, counted and seeded in a 96-well multiwell plate at a density of 4×10^4 cells per well. […]
The wells' optical density was determined using a microplate reader set at 405 nm.
The results were normalized with positive control (LPS alone) and expressed as a mean of percentage ±SEM of at least three independent experiments.

infective agent = conditions: once or thrice, myelo-suppressed or immunocompetent mice; cited from earlier work
Escherichia coli = conditions: one dose one day prior to microbial inoculation; cited from earlier work
[5] = repeated dosages; cited from earlier work
[6] = galactosamine-sensitized mice; cited from earlier work
CD14 = conditions: human peripheral blood cells; cited from earlier work
[7] = tumour-affected patients; cited from earlier work
[8] = tested on: murine macrophages and neutrophil granulocytes; conditions: cited from earlier work

T2 sequence (O00206 24-839): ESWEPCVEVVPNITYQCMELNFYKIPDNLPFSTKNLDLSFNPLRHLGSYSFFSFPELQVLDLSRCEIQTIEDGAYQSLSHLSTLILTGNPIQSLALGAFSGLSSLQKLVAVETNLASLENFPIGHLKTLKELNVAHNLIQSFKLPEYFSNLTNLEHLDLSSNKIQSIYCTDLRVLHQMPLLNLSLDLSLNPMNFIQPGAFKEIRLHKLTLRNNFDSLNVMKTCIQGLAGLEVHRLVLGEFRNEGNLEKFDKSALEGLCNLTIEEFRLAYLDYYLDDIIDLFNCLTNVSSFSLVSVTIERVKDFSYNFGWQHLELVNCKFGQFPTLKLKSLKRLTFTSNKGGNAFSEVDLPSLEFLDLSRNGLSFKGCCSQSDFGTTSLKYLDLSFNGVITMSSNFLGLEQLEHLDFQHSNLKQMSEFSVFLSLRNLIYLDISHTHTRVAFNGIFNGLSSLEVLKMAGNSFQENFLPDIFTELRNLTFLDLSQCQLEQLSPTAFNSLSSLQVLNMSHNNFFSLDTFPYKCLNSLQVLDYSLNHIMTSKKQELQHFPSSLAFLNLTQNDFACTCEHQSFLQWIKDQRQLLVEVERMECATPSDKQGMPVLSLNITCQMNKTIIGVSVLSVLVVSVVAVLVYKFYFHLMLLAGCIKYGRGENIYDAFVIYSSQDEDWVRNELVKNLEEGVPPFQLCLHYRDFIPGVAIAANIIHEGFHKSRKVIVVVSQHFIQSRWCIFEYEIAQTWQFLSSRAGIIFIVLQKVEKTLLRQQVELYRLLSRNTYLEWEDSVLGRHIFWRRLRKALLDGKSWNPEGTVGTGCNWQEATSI
T2 sequence (Q9Y6Y9 17-160 limits assumed): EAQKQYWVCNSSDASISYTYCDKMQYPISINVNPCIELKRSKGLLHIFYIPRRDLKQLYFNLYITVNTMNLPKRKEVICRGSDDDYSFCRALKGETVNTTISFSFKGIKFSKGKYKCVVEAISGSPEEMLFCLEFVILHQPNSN

SMILES | decrease of bis-ANS fluorescence / inhibition of bis-ANS binding to MD-2 [1] | activation of transcription factors NF-κB and AP-1 in cells without TLR4, MD-2, CD14 (HEK-Blue™ Null2 cells) | prevention of monoclonal antibody 9B4 binding to MD-2 [2] | direct binding to MD-2 (SPR) [3] | ability to displace biotinylated LPS from MD-2 hydrophobic pocket [4] | TLR4 agonist activity (activation of NF-κB and AP-1) (hTLR4) | protective effect on prophylactic administration (infective agent) | effect on curative effects of antibiotics (Escherichia coli) | duration of transient resistance to endotoxin-related lethal risks [5] [week] | factor of toxicity reduction compared to parent endotoxin (Salmonella abortus equi) [6] | blocking of compound-induced TNF-α release by monoclonal antibodies for CD-14 (CD14) | effect on granulocyte counts and serum cytokine levels [7] | safety and tolerability of administration [7] | stimulation of release of IL-6, IL-8 and TNF-α [8]
CCCCCCCCCCCCCC(=O)NC1[C@H](OP(=O)(O)O)OC(COP(=O)(O)O)[C@@H](OC(=O)CCCCCCCCCCCCC)[C@@H]1OC(=O)CCCCCCCCCCCCC (stereo partly drawn) [FP111, 1,6-O-Phosphoryl-2-deoxy-4-O-tetradecanoyl 3-O-tetradecanoyl-2-tetradecanoylamino-α-D-glucopiranoside] | not able to induce a decrease of compound bis-ANS fluorescence; also recorded: but not FP111, inhibits the binding of bis-ANS to MD-2 | unable to activate transcription factors NF-κB and AP-1 | unable to cause a decrease of 9B4 antibody binding; also recorded: but not FP111, prevents the binding of monoclonal antibody to MD-2 | but not FP111, directly binds MD-2; also recorded: does not bind MD-2 | unable to displace biotinylated LPS; also recorded: but not FP111, displaces biotinylated LPS | completely inactive |  |  |  |  |  |  |  | 
CCCCCCCCCCC[C@@H](O)CC(=O)N[C@H]1[C@@H](OP(=O)(O)O)O[C@H](CO)[C@@H](OC(=O)C[C@H](O)CCCCCCCCCCC)[C@@H]1OC(=O)C[C@H](O)CCCCCCCCCCC [SDZ MRL 953] |  |  |  |  |  |  | highly protective effect | dramatically increased the curative effects of antibiotics administered | ≥ 1 | at least 10^4 | is not blocked | increases granulocyte counts and serum levels of G-CSF and interleukin-6 (IL-6), but not of pro-inflammatory cytokines TNF-α, IL-1b, and IL-8 | safe and of excellent tolerability | potent activity in stimulating the release of inflammatory cytokines
